Columns and labels:
[1] = Clearance study in a hepatocyte co-culture system; details: human, hepatocytes
Text: Renal clearance for DN-IMI was assumed to be governed only by passive processes, with both filtration and passive reabsorption being accounted for. Passive permeability was scaled from the predicted permeability in the intestine (Peff 0.37 10-4 cm/s) accounting for the surface area of the proximal tubules in the kidney.

[2] = monoprotic base; average of values; ref CHEMBL and ACD; cited from earlier work
LUHMES neurons = test: Single-cell Ca2+-imaging of LUHMES neurons; type: cell-based, human; details: single-cell time-lapse fluorescence microscopy
Experimental: For Ca^2+-imaging experiments with a higher resolution on the single-cell level, the Cell Observer (Carl Zeiss Microscopy) was used. The Ca^2+-sensitive dye, the cell handling before the experiment, and the buffer were the same as described above for the experiments with the high-throughput FDSS/µCELL system. The recordings were performed with 2 × 2 binning and a 42 ms exposure time. The compounds were applied after a baseline recording of at least 10 s.
The single-cell Ca^2+-imaging recordings were exported and analyzed in Fiji ImageJ (version 1.52i) to get the average fluorescence signal of each cell. These signals were further analyzed in R, where a threshold detection was performed to detect responding cells. For this, the offset was corrected by subtracting the mean of 20–65% of the fluorescence signal of the pre-application period from the recording, to be robust against spontaneous activity. The threshold was defined as mean + 3 * SD of the negative control recordings, during the detection phase of 6.5 s during the application.

nAChRs on LUHMES neurons = test: High-throughput Ca2+-imaging of LUHMES neurons (agonist effect); type: cell-based, human
Experimental: For Ca^2+-imaging, the cells were pre-differentiated for 48 h in cell culture flasks, detached and plated at a density of 20,000 cells and 30,000 cells per well on 0.1% PEI-coated 384-well and 96-well plates (Greiner Bio-One), respectively, for the Ca^2+-imaging. The cells were further differentiated for another 7 days. 50% of the medium was exchanged every 2–3 days.
Ca^2+-imaging was performed using HT Functional Drug Screening System FDSS/µCELL (Hamamatsu Photonics) at nominal 37 °C. The FDSS/µCell system enables the indirect recording of changes of [Ca^2+]i via a Ca^2+-sensitive fluorescent dye. The fluorescence signal of a complete 384-well plate is acquired at once with a high-speed and high-sensitivity digital ImagEM X2 EM-CCD camera (Electron Multiplying Charge-Coupled Device, Hamamatsu Photonics), but with limited spatial resolution. Therefore, the software only determines the mean fluorescence signal of each well rather than of individual cells. For compound application, the integrated dispenser head with 384 pipette tips was used, which can add the test compound to all wells simultaneously. Cells were preincubated with Cal-520 AM (AAT Bioquest) at a concentration of 1 µM for 1 h at 37 °C. For recording, the medium was exchanged by a buffer solution containing [mM]: 135 NaCl, 5 KCl, 0.2 MgCl2, 2.5 CaCl2, 10 HEPES, and 10 D-glucose, pH 7.4. Test compound application was executed after obtaining a 1.5 min baseline recording. Where applicable, a second application was executed 4.5 min after the first application. The total recording never exceeded 8 min.
For the high-throughput Ca^2+-imaging data obtained in LUHMES cells, an offset correction using the FDSS software (version 3.2) was performed. Afterward, the data were exported and further analyzed with scripts written in R (version 3.6.3) (R Core Team [2020]). The concentration–response curves were fitted using a log-logistic model described by Ritz et al. ([2015]), utilizing the R package drc with its function drm() and LL2.2() with the following equation: f(x) = d/[1 + exp(b(log(x) − ẽ))] (Ritz et al. [2015]). The logarithm of the half-maximal effective concentration (logEC50) between 0 and the upper limit (d), which was set to 1, is represented by ẽ, x denotes the concentration, and b stands for the slope parameter (Ritz et al. [2015]). In cases with normalizations to responses induced by other compounds, the function LL2.3() was used with a variable upper limit (d; Ritz et al. [2015]). The same equation was used to determine the half-maximal inhibitory concentration (logIC50). Then the logEC50 and logIC50 values were converted into the pIC50 and pEC50 values, which are the negative logarithms to base 10.

mice = details: ref Chao and Casida [1997], Tomizawa et al. [2000], [2001]; cited from earlier work
human α4β2 (HS) nAChR = target: T1, human α4β2 (HS) nAChR (Homo sapiens, UniProt P17787+P43681); test: Two-electrode voltage-clamp recordings, Xenopus laevis oocytes expressing human α4β2 (HS) nAChR; type: cell-based
T1 construct: expressed in transfected cells; host or cells: Xenopus laevis oocytes (EcoCyte Bioscience), mRNA injection, 3 ng α4 and 30 ng β2

[3] = test system: Xenopus laevis oocytes without additional receptor expression; test: Control recordings in oocytes without additional receptor expression; type: cell-based; details: DN-IMI 30 µM, injection of water without mRNA, n = 5
Experimental: First, we focused our experiments on the α4β2 receptor, which can assemble in two different stoichiometries. […] For control purposes, we applied DN-IMI (30 µM) to Xenopus laevis oocytes without additional receptor expression (injection of water without mRNA).

T1 sequence (P43681 27-627): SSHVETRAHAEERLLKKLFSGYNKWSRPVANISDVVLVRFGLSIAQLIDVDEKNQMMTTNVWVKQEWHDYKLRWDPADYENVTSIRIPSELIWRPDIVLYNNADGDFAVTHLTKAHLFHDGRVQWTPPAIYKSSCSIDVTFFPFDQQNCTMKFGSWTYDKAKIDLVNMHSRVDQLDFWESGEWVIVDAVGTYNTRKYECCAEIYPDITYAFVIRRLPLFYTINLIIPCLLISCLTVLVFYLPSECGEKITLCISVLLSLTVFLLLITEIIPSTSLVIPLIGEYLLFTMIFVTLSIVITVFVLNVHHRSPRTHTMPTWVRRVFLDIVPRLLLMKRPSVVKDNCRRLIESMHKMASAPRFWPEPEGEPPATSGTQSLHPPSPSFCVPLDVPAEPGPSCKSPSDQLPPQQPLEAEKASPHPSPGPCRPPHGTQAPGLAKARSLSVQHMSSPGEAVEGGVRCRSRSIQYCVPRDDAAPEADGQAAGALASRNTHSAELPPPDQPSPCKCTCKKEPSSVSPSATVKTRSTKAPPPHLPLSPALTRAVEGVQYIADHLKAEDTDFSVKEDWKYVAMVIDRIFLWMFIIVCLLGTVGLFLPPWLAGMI
T1 sequence (P17787 26-502): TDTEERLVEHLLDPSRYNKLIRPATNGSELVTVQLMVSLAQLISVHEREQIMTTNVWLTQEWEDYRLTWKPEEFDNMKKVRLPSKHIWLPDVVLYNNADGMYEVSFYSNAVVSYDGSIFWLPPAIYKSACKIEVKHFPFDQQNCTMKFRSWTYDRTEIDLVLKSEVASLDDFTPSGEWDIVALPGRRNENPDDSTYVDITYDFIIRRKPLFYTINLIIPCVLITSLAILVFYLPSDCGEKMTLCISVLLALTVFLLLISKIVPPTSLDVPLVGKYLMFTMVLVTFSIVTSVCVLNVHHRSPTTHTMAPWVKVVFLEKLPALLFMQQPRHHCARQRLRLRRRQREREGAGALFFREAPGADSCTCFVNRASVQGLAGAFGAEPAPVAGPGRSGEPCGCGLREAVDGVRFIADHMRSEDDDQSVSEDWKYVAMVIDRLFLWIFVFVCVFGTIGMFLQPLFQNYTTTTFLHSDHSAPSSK

Structure (SMILES): NC1=NCCN1Cc1ccc(Cl)nc1 [DN-IMI, desnitro-imidacloprid]
- hepatocyte CLint [1]: < 143 µL/min/1e6 cells
- pKa [2]: 9.6
- percentage of responsive cells (LUHMES neurons): ~ 80%
- pEC50 of [Ca2+]i response (peak amplitude) (nAChRs on LUHMES neurons; LUHMES neurons, absence of PNU, normalized to the maximal response stimulated by DN-IMI, tested ≤ 100 µM): 6.6
- increase of the maximal amplitude by PNU (nAChRs on LUHMES neurons; PNU-120596 10 µM): around 40%
- upper asymptote, % of the maximal response (nAChRs on LUHMES neurons; absence of PNU): 53%
- relative half maximum (turning point) (nAChRs on LUHMES neurons; absence of PNU, normalized to maximal response to DN-IMI in presence of PNU): 6.8 ± 0.04 -log(M)
- concentrations triggering [Ca2+]i responses (nAChRs on LUHMES neurons; human neurons): ≥ 100 nM
- BMC for 20% response (nAChRs on LUHMES neurons; in different systems ([Ca2+]i signaling and single nAChR data)): 100 to 300 nM
- relative half maximum (turning point) (nAChRs on LUHMES neurons; presence of PNU (10 µM)): 6.5 ± 0.03 -log(M)
- upper asymptote, % of the maximal response (nAChRs on LUHMES neurons; presence of PNU (10 µM)): 93%
- LD50 (mice): 6 to 24 mg/kg
- EC50 (human α4β2 (HS) nAChR): 501 nM
- fold lower concentrations activating α4β2 (HS) than α7 and α3β4 nAChRs (human α4β2 (HS) nAChR): 20 fold
- higher potency on α4β2 (HS) nAChR than on other subtypes (human α4β2 (HS) nAChR; comparison of EC25 values, α4β2 (HS) vs α7 and α3β4): > 1 log-step
- absolute EC25 (human α4β2 (HS) nAChR; from curve-fitted concentration–response data): 0.33 µM
- estimated maximum amplitude, % of nicotine's (human α4β2 (HS) nAChR; normalized to nicotine (10 µM)): 64%
- current responses in oocytes without receptor expression [3]: did not detect any current responses
